Test results: ChEMBL document CHEMBL4680282, “Repurposing of Drugs-The Ketamine Story” (J Med Chem, 2020)
Values after ≈ are worked out from the molar mass of the structure shown.

Legend:
[1] = biological target: Glutamate NMDA receptor; assay: Displacement of [3H]-MK801 from NMDA receptor in rat brain homogenate; type: tissue-based
[2] = biological target: Glutamate NMDA receptor; assay: Displacement of [3H]-MK801 from NMDA receptor in rat brain membranes; type: cell membranes, Membrane
[3] = Cmax in mouse brain at 10 mg/kg, ip measured after 10 mins; type: ADME, organism-based; design: route intraperitoneal, time 10 min, dose 10 mg/kg; conditions: in vivo
[4] = Solubility of the compound in water; type: physicochemical
[5] = Bioavailability in SL dosed human; type: ADME, organism-based; conditions: in vivo
[6] = Oral bioavailability in human; type: ADME, organism-based; conditions: in vivo
[7] = Displacement of [3H]-MK801 from NMDA receptor in ICR Harlan mouse brain homogenate incubated for 45 mins by liquid scintillation spectrometry; type: tissue-based
[8] = Displacement of [3H]-MK801 from NMDA receptor in Dunkin-Hartley guinea pig brain homogenate incubated for 45 mins by liquid scintillation spectrometry; type: tissue-based, Cavia porcellus
[9] = Displacement of [3H]-MK801 from NMDA receptor in dog cerebral cortex incubated for 45 mins by liquid scintillation spectrometry; type: tissue-based, Canis lupus familiaris
[10] = biological target: Glutamate NMDA receptor; assay: Displacement of [3H]-MK801 from NMDA receptor in rat forebrain homogenate incubated for 2 hrs in presence of Mg2+ by liquid scintillation counting method; type: tissue-based
[11] = tested on: Homo sapiens; assay: Anesthetic activity in po dosed human assessed as time duration for onset of action; type: functional
[12] = tested on: Homo sapiens; assay: Anesthetic activity in IM dosed human assessed as time duration of action; type: functional
[13] = biological target: Glutamate NMDA receptor; Grin1/Grin2a (Rattus norvegicus, UniProt P35439+Q00959); assay: Displacement of [3H]-MK801 from rat brain GluN1/GluN2A expressed in HEK293 cells; type: cell-based
[14] = tested on: Homo sapiens; assay: Anesthetic activity in IM dosed human assessed as time duration for onset of action; type: functional
[15] = biological target: Glutamate [NMDA] receptor; assay: Displacement of [3H]-MK801 from NMDA receptor in human cortex incubated for 2 hrs in presence of Mg2+ by scintillation counting method; type: tissue-based
[16] = biological target: Glutamate NMDA receptor; assay: Displacement of [3H]-MK801 from NMDA receptor in rat brain membranes incubated for 2 hrs in presence of Mg2+ by radioligand binding assay; type: cell membranes, Membrane
[17] = Aqueous solubility of the compound; type: physicochemical
[18] = biological target: Glutamate NMDA receptor; assay: Displacement of [3H]-MK801 from NMDA receptor in rat brain membranes incubated for 45 mins in presence of Mg2+ by scintillation counting method; type: cell membranes, Membrane
[19] = Protein binding in human plasma; type: ADME, cell-free; conditions: read-out: PPB (converted)
[20] = Displacement of [3H]-MK801 from NMDA receptor in dog brain homogenate incubated for 45 mins by liquid scintillation spectrometry; type: tissue-based, Canis lupus familiaris
[21] = biological target: Glutamate NMDA receptor; assay: Displacement of [3H]-MK801 from NMDA receptor in Sprague-Dawley rat cortex incubated for 2 hrs in presence of Mg2+ by scintillation counting method; type: tissue-based
[22] = biological target: Glutamate NMDA receptor; Grin1/Grin2b (Rattus norvegicus, UniProt P35439+Q00960); assay: Displacement of [3H]-MK801 from rat brain GluN1/GluN2B expressed in HEK293 cells; type: cell-based
[23] = biological target: Glutamate [NMDA] receptor; assay: Displacement of [3H]-MK801 from NMDA receptor in human frontal cortex in presence of Mg2+ by scintillation counting method; type: tissue-based
[24] = biological target: Glutamate NMDA receptor; assay: Displacement of [3H]-MK801 from NMDA receptor in rat brain membranes incubated for 60 mins in presence of Mg2+ by liquid scintillation counting method; type: cell membranes, Membrane
[25] = biological target: Glutamate NMDA receptor; assay: Displacement of [3H]-MK801 from NMDA receptor in Sprague-Dawley rat cerebral cortex by liquid scintillation counting method; type: tissue-based
[26] = Cmax in human at 2 mg/kg, iv measured after 1 mins; type: ADME, organism-based; design: route intravenous, time 1 min, dose 2 mg/kg; conditions: in vivo
[27] = biological target: Glutamate NMDA receptor; assay: Displacement of [3H]-MK801 from NMDA receptor in rat spinal cord incubated for 45 mins by liquid scintillation spectrometry; type: tissue-based
[28] = Bioavailability in iv dosed human; type: ADME, organism-based; conditions: in vivo
[29] = biological target: Glutamate NMDA receptor; assay: Displacement of [3H]-MK801 from NMDA receptor in rat brain membranes incubated for 2 hrs in presence of Mg2+/glumate/glycine by radioligand binding assay; type: cell membranes, Membrane
[30] = biological target: Glutamate NMDA receptor; assay: Inhibition of NMDAR-mediated excitatory postsynaptic potential in Sprague-Dawley rat hippocampus CA1 region by electrophysiology; design: species or system Brain
[31] = Bioavailability in REC dosed human; type: ADME, organism-based; conditions: in vivo
[32] = Drug elimination in human urine assessed as metabolically unchanged compound; type: ADME; conditions: read-out: Drug excretion
[33] = tested on: Homo sapiens; assay: Anesthetic activity in SC dosed human assessed as time duration for onset of action; type: functional
[34] = tested on: Homo sapiens; assay: Anesthetic activity in IN dosed human assessed as time duration for onset of action; type: functional
[35] = biological target: Glutamate NMDA receptor; assay: Displacement of [3H]-MK801 from NMDA receptor in rat striatum incubated for 2 hrs in presence of Mg2+ by scintillation counting method; type: tissue-based
[36] = Bioavailability in IN dosed human; type: ADME, organism-based; conditions: in vivo, inhaled or intranasal
[37] = biological target: Glutamate NMDA receptor; assay: Displacement of [3H]-TCP from NMDA receptor in rat brain membranes incubated for 45 mins in presence of Mg2+ by scintillation counting method; type: cell membranes, Membrane
[38] = biological target: Glutamate NMDA receptor; assay: Displacement of [3H]-MK801 from NMDA receptor in rat whole brain homogenate incubated for 2 hrs in presence of Mg2+ by liquid scintillation counting method; type: tissue-based
[39] = biological target: Glutamate NMDA receptor; assay: Displacement of [3H]-MK801 from NMDA receptor in Sprague-Dawley rat cerebellum by liquid scintillation counting method; type: tissue-based
[40] = Elimination half life in human; type: ADME; conditions: read-out: beta t1/2 (converted)
[41] = tested on: Homo sapiens; assay: Anesthetic activity in po dosed human assessed as time duration of action; type: functional
[42] = biological target: Glutamate NMDA receptor; assay: Displacement of [3H]-MK801 from NMDA receptor in Sprague-Dawley rat brain synaptic membrane incubated for 60 mins by liquid scintillation counting method; type: cell membranes
[43] = biological target: Glutamate NMDA receptor; GRIN1/GRIN2A (Homo sapiens, UniProt Q05586+Q12879); assay: Displacement of [3H]-MK801 from human forebrain […] expressed in HEK293 cells by […]; type: cell-based
[44] = Elimination half life in Wistar rat at 20 mg/kg, iv by LC-MS analysis; type: ADME, organism-based; conditions: in vivo, read-out: beta t1/2 (converted)
[45] = Bioavailability in human at 0.5 mg/kg, IM; type: ADME, organism-based; conditions: in vivo

Chain of Glutamate NMDA receptor; Grin1/Grin2a (Q00959 whole entry, other chains not shown): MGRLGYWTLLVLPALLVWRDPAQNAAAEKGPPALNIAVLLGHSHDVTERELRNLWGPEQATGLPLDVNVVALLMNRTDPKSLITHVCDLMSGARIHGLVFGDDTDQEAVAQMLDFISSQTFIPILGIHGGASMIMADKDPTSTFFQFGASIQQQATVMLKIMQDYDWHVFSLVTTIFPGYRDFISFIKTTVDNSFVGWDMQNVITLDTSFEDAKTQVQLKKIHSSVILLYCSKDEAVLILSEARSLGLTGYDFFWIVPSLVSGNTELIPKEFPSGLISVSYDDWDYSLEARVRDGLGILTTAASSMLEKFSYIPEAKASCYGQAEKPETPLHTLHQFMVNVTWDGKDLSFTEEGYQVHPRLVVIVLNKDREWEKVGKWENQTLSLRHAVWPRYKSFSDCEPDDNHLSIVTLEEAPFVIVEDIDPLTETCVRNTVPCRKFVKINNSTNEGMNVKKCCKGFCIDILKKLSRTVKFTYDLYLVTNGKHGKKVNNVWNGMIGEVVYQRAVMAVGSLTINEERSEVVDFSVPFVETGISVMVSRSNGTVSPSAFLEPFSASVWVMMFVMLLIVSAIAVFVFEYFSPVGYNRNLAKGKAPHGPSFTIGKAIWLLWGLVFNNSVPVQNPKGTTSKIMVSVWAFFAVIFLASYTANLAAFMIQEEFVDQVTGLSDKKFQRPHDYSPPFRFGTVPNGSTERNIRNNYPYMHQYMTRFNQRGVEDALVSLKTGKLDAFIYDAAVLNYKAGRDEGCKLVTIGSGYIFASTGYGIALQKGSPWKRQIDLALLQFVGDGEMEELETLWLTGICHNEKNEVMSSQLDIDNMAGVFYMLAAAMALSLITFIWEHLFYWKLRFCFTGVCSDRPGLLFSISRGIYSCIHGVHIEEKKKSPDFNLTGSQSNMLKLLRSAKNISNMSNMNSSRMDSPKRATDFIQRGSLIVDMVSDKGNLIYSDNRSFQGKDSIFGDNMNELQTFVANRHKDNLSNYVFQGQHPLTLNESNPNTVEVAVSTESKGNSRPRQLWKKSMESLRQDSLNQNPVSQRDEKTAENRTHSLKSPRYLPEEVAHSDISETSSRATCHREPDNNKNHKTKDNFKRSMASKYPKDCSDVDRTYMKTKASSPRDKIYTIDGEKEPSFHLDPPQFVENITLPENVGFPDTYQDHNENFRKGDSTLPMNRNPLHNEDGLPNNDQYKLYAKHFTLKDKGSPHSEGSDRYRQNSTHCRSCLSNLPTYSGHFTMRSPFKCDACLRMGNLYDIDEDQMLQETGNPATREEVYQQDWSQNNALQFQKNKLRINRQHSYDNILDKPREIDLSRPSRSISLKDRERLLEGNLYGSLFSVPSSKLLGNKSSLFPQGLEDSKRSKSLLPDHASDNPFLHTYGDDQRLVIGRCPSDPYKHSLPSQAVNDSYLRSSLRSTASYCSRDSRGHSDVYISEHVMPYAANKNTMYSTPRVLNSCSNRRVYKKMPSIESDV
Chain of Glutamate NMDA receptor; GRIN1/GRIN2A (Q12879 whole entry, other chains not shown): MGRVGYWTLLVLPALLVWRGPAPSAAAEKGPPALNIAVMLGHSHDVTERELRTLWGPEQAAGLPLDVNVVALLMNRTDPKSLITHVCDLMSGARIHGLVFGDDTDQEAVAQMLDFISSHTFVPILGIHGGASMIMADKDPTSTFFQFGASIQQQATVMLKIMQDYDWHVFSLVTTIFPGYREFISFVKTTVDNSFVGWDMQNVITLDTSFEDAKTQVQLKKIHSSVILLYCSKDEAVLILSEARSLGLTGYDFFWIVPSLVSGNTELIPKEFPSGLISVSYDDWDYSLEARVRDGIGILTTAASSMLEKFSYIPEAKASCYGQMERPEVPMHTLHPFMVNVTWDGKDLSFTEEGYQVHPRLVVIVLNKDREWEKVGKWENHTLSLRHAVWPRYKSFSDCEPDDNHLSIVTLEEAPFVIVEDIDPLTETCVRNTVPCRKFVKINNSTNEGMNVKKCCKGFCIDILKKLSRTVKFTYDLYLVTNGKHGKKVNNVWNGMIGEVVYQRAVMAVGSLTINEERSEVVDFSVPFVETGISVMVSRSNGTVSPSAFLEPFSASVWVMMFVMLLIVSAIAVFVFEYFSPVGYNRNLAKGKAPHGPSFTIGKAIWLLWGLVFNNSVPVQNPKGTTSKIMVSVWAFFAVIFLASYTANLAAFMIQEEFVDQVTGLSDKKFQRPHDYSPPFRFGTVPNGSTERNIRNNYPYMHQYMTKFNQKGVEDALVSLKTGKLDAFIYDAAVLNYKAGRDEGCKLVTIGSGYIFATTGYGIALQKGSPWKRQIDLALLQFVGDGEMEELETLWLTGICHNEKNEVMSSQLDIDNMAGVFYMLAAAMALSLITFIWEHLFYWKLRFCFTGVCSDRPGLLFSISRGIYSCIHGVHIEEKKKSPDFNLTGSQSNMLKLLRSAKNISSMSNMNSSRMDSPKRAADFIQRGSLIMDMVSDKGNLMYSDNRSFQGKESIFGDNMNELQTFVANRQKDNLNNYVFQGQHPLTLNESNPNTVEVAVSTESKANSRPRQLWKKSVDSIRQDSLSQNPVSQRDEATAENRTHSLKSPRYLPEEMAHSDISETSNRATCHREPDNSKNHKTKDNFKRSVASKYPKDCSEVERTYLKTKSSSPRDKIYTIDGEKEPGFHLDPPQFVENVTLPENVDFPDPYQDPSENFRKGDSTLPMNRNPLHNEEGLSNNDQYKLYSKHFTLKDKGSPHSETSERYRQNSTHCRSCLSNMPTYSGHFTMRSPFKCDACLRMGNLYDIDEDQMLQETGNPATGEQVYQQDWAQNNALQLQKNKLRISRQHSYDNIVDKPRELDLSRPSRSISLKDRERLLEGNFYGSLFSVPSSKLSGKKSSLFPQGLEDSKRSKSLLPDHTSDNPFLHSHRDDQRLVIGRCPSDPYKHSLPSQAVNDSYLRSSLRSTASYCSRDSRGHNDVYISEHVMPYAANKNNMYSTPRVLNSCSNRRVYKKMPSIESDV
Chain of Glutamate NMDA receptor; Grin1/Grin2b (Q00960 whole entry, other chains not shown): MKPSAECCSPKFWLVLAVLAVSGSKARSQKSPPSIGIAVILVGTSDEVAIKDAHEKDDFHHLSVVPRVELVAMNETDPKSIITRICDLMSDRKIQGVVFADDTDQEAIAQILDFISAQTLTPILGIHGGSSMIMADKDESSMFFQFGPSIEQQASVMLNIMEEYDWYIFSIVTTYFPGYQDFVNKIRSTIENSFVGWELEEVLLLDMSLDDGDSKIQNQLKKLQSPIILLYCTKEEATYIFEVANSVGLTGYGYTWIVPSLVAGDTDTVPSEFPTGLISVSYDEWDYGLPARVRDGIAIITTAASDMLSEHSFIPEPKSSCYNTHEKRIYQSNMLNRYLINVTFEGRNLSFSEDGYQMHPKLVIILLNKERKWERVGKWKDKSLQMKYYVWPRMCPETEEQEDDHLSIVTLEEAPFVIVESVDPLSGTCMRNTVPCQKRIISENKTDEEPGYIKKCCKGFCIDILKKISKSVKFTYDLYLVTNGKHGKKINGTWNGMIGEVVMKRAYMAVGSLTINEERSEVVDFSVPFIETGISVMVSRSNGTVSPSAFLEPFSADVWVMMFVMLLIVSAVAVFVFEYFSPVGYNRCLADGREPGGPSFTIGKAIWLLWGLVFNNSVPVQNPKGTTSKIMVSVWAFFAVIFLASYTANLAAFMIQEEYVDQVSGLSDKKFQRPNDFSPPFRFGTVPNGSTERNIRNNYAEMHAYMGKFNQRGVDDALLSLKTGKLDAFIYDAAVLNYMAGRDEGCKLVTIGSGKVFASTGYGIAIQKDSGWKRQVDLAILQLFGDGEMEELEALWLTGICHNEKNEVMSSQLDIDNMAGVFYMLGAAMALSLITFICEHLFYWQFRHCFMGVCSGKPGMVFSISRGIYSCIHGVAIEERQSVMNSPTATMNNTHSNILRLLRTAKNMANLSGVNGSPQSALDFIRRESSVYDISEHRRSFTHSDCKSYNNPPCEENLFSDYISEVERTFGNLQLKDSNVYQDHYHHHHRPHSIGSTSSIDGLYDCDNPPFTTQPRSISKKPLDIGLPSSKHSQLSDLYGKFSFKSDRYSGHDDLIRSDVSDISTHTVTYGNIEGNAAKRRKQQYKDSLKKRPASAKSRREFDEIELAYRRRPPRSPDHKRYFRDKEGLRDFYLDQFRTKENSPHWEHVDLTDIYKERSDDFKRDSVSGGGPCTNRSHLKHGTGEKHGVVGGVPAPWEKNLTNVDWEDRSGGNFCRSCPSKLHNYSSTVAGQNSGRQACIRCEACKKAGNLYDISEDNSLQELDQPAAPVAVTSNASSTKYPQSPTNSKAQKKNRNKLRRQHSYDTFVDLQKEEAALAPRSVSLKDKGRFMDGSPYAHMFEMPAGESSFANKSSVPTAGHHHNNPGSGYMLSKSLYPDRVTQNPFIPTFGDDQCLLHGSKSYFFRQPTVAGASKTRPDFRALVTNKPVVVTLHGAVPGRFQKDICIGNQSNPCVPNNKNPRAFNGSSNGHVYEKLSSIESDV

**Q.** What does the source list for N[C@]1(c2ccccc2Cl)CCCCC1=O?
**A.** Ki [1]: 1700 nM; Ki [2]: 2250 nM

**Q.** With CN[C@@]1(c2ccccc2Cl)CCCCC1=O as the compound, how does the Ki [1] read?
**A.** Its Ki is 1400 nM.

**Q.** And the Ki [2]?
**A.** The Ki was 2570 nM.

**Q.** And the Cmax [3]?
**A.** The Cmax was 7.93 µmol/kg.

**Q.** For CN[C@]1(c2ccccc2Cl)CCCCC1=O [ESKETAMINE], which Ki [1] is on record?
**A.** Its Ki is 300 nM.

**Q.** And the Ki [2]?
**A.** The Ki was 690 nM.

**Q.** What about the Cmax [3] of the same compound?
**A.** Its Cmax is 7.33 µmol/kg.

**Q.** Which solubility [4] does the source give for CNC1(c2ccccc2Cl)CCCCC1=O.Cl (stereo not given) [KETAMINE HYDROCHLORIDE] here?
**A.** The solubility was 200 mg/mL.

**Q.** Which bioavailability [5] does the source give for CNC1(c2ccccc2Cl)CCCCC1=O (stereo not given) [KETAMINE] here?
**A.** Its bioavailability is 24%.

**Q.** And the bioavailability [6]?
**A.** Its bioavailability is 17%.

**Q.** What about the Ki [7] of the same compound?
**A.** The Ki was 180 nM.

**Q.** What about the Ki [8] of the same compound?
**A.** The Ki was 180 nM.

**Q.** What about the Ki [9] of the same compound?
**A.** Its Ki is 180 nM.

**Q.** What about the Ki [10] of the same compound?
**A.** Its Ki is 180 nM.

**Q.** And the Time [11]?
**A.** Its Time is 15 min.

**Q.** And the Time [12]?
**A.** The Time was 0.5 h.

**Q.** And the Ki [13]?
**A.** The Ki was 180 nM.

**Q.** And the Time [14]?
**A.** Its Time is 1 min.

**Q.** What about the Ki [15] of the same compound?
**A.** The Ki was 180 nM.

**Q.** And the Ki [16]?
**A.** The Ki was 180 nM.

**Q.** And the solubility [17]?
**A.** The solubility was 0.046 mg/mL (≈ 193 µM).

**Q.** And the Ki [18]?
**A.** The Ki was 180 nM.

**Q.** And the fraction unbound [19]?
**A.** The fraction unbound was 0.88.

**Q.** What about the Ki [20] of the same compound?
**A.** Its Ki is 180 nM.

**Q.** And the Ki [21]?
**A.** Its Ki is 180 nM.

**Q.** What about the Ki [22] of the same compound?
**A.** The Ki was 180 nM.

**Q.** What about the Ki [23] of the same compound?
**A.** Its Ki is 180 nM.

**Q.** And the Ki [24]?
**A.** Its Ki is 180 nM.

**Q.** And the Ki [25]?
**A.** Its Ki is 180 nM.

**Q.** What about the Cmax [26] of the same compound?
**A.** The Cmax was 7.6 µM.

**Q.** What about the Ki [27] of the same compound?
**A.** The Ki was 180 nM.

**Q.** What about the F [28] of the same compound?
**A.** The F was 100%.

**Q.** And the Ki [29]?
**A.** The Ki was 180 nM.

**Q.** And the IC50 [30]?
**A.** Its IC50 is 10000 nM.

**Q.** And the bioavailability [31]?
**A.** Its bioavailability is 11%.

**Q.** What about the dose excreted [32] of the same compound?
**A.** Its dose excreted is 2%.

**Q.** And the Time [33]?
**A.** The Time was 15 min.

**Q.** And the Time [34]?
**A.** Its Time is 5 min.

**Q.** And the Ki [35]?
**A.** The Ki was 180 nM.

**Q.** And the bioavailability [36]?
**A.** The bioavailability was 8%.

**Q.** What about the Ki [37] of the same compound?
**A.** The Ki was 180 nM.

**Q.** What about the Ki [38] of the same compound?
**A.** Its Ki is 180 nM.

**Q.** What about the Ki [39] of the same compound?
**A.** The Ki was 180 nM.

**Q.** What about the half-life [40] of the same compound?
**A.** The half-life was 2 h.

**Q.** What about the Time [41] of the same compound?
**A.** The Time was 4 h.

**Q.** What about the Ki [42] of the same compound?
**A.** The Ki was 180 nM.

**Q.** What about the Ki [43] of the same compound?
**A.** The Ki was 180 nM.

**Q.** And the half-life [44]?
**A.** Its half-life is 8 h.

**Q.** And the bioavailability [45]?
**A.** The bioavailability was 93%.
